In US20230093861A1, “RAPAMYCIN ANALOGS AS MTOR INHIBITORS” (Revolution Medicines, Inc., priority 2017, published 2023):
Read-outs that look alike come from different tables or passages of the source.

Experiments:
P-P70S6K (T389) = assay: Cell based AlphaLISA assay, inhibition of P-P70S6K (T389) (mTORC1 substrate phosphorylation) in MDA-MB-468 cells; conditions: Homo sapiens, 4 h, AlphaLISA, two to four hours at 37° C., read-out: pIC50 for Inhibition of mTORC1 and mTORC2 Substrate Phosphorylation, P-P70S6K-(T389) (converted)
In short: (§1)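 AlphaLISA SureFire Ultra detection of phosphorylated substrate in lysed cells; duplicate Alpha reads; control-normalized IC50 fitting.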

P-4E-BP1 (T37/46) = assay: Cell based AlphaLISA assay, inhibition of P-4E-BP1 (T37/46) (mTORC1 substrate phosphorylation) in MDA-MB-468 cells; conditions: Homo sapiens, AlphaLISA, two to four hours at 37° C., read-out: pIC50 for Inhibition of mTORC1 and mTORC2 Substrate Phosphorylation, P-4E-BP1-(T37/46) (converted)
In short: as §1

P-Akt (S473) = assay: Cell based AlphaLISA assay, inhibition of P-Akt (S473) (mTORC2 substrate phosphorylation) in MDA-MB-468 cells; conditions: Homo sapiens, AlphaLISA, two to four hours at 37° C., read-out: pIC50 for Inhibition of mTORC1 and mTORC2 Substrate Phosphorylation, p-AKT 1/2/3 -(S473) (converted)
In short: as §1

| Compound | IC50 (P-P70S6K (T389)) | IC50 (P-4E-BP1 (T37/46); MDA-MB-468, 4 h) | IC50 (P-Akt (S473); MDA-MB-468, 4 h) | IC50 (P-4E-BP1 (T37/46); 4 h) | IC50 (P-Akt (S473); 4 h) |
| --- | --- | --- | --- | --- | --- |
| CO[C@H]1C[C@@H]2CC[C@@H](C)[C@@](O)(O2)C(=O)C(=O)N2CCCC[C@H]2C(=O)O[C@H]([C@H](C)C[C@@H]2CC[C@H](n3cc(CCCC(=O)NCCOCCOCCOCCC(=O)NCCOCCOCCC(=O)NCCCCn4nc(-c5ccc6oc(N)nc6c5)c5c(N)ncnc54)nn3)[C@H](OC)C2)C[C@@H](OC)[C@H](C)/C=C(\C)[C@@H](O)[C@@H](OC)C(=O)[C@H](C)C[C@H](C)/C=C/C=C/C=C/1C [Example 162] | 1 to 10 nM | 31.6 to 1000 nM | > 1000 nM | – | – |
| CCO[C@@H]1C[C@@H]([C@H](C)C[C@@H]2CC[C@H](n3cc(COC(=O)NCCOCCOCCOCCC(=O)NCCOCCOCCOCCC(=O)NCCCCn4nc(-c5ccc6oc(N)nc6c5)c5c(N)ncnc54)nn3)[C@H](OC)C2)OC(=O)[C@@H]2CCCCN2C(=O)C(=O)[C@]2(O)O[C@@H](CC[C@H]2C)C[C@H](OC)/C(C)=C/C=C/C=C/[C@@H](C)C[C@@H](C)C(=O)[C@H](OC)[C@H](O)/C(C)=C/[C@H]1C [Example 149] | 1 to 10 nM | 31.6 to 1000 nM | 31.6 to 1000 nM | – | – |
| CO[C@H]1C[C@@H]2CC[C@@H](C)[C@@](O)(O2)C(=O)C(=O)N2CCCC[C@H]2C(=O)O[C@H]([C@H](C)C[C@@H]2CC[C@H](n3cc(COC(=O)NCCOCCOCCOCCC(=O)NCCOCCOCCOCCC(=O)NCCCCn4nc(-c5ccc6oc(N)nc6c5)c5c(N)ncnc54)nn3)[C@H](OC)C2)C[C@@H](OC)[C@H](C)/C=C(\C)[C@@H](O)[C@@H](OC)C(=O)[C@H](C)C[C@H](C)/C=C/C=C/C=C/1C [Example 145] | 1 to 10 nM | 31.6 to 1000 nM | > 1000 nM | – | – |
| CO[C@H]1C[C@@H]2CC[C@@H](C)[C@@](O)(O2)C(=O)C(=O)N2CCCC[C@H]2C(=O)O[C@H]([C@H](C)C[C@@H]2CC[C@@H](O)[C@H](OC)C2)C[C@@H](OC)[C@H](C)/C=C(\C)[C@@H](O)[C@@H](OC)C(=NOCc2cn(CCOCCOCCOCCOCCOCCC(=O)NCCCCn3nc(-c4ccc5oc(N)nc5c4)c4c(N)ncnc43)nn2)[C@H](C)C[C@H](C)/C=C/C=C/C=C/1C [Example 12] | > 1000 nM | > 1000 nM | > 1000 nM | – | – |
| CO[C@H]1C[C@@H]2CC[C@@H](C)[C@@](O)(O2)C(=O)C(=O)N2CCCC[C@H]2C(=O)O[C@H]([C@H](C)C[C@@H]2CC[C@H](n3cc(COC(=O)NCCOCCOCCOCCC(=O)NCCOCCOCCC(=O)NCCCCn4nc(-c5cc6cc(O)ccc6[nH]5)c5c(N)ncnc54)nn3)[C@H](OC)C2)C/C(=N/OCc2ccccc2)[C@H](C)/C=C(\C)[C@@H](O)[C@@H](OC)C(=O)[C@H](C)C[C@H](C)/C=C/C=C/C=C/1C [Example 155] | > 1000 nM | > 1000 nM | > 1000 nM | – | – |
| CO[C@H]1C[C@@H]2CC[C@@H](C)[C@@](O)(O2)C(=O)C(=O)N2CCCC[C@H]2C(=O)O[C@H]([C@H](C)C[C@@H]2CC[C@H](n3cc(-c4cnc(N5CCN(c6ncc(C(=O)NCCOCCC(=O)NCCCCn7nc(-c8ccc9oc(N)nc9c8)c8c(N)ncnc87)cn6)CC5)nc4)nn3)[C@H](OC)C2)CC(=O)[C@H](C)/C=C(\C)[C@@H](O)[C@@H](OC)C(=O)[C@H](C)C[C@H](C)/C=C/C=C/C=C/1C [Example 109] | < 1 nM | > 1000 nM | > 1000 nM | – | – |
| CO[C@H]1C[C@@H]2CC[C@@H](C)[C@@](O)(O2)C(=O)C(=O)N2CCCC[C@H]2C(=O)O[C@H]([C@H](C)C[C@@H]2CC[C@@H](OCCCCc3cn(CCOCCOCCOCCOCCOCCOCCOCCOCCC(=O)NCCCCn4nc(-c5cc6cc(O)ccc6[nH]5)c5c(N)ncnc54)nn3)[C@H](OC)C2)CC(=O)[C@H](C)/C=C(\C)[C@@H](O)[C@@H](OC)C(=O)[C@H](C)C[C@H](C)/C=C/C=C/C=C/1C [Example 42] | < 1 nM | – | – | < 3.16 nM | 3.16 to 31.6 nM |
| CO[C@H]1C[C@@H]2CC[C@@H](C)[C@@](O)(O2)C(=O)C(=O)N2CCCC[C@H]2C(=O)O[C@H]([C@H](C)C[C@@H]2CC[C@@H](O)[C@H](OC)C2)C[C@@H](OC)[C@H](C)/C=C(\C)[C@@H](O)[C@@H](OC)C(=NOCc2cn(CCOCCOCCOCCOCCC(=O)NCCCCn3nc(-c4ccc5oc(N)nc5c4)c4c(N)ncnc43)nn2)[C@H](C)C[C@H](C)/C=C/C=C/C=C/1C [Example 16] | > 1000 nM | > 1000 nM | > 1000 nM | – | – |
| CO[C@H]1C[C@@H]2CC[C@@H](C)[C@@](O)(O2)C(=O)C(=O)N2CCCC[C@H]2C(=O)O[C@H]([C@H](C)C[C@@H]2CC[C@@H](OCCCCc3cn(CCOCCOCCOCCOCCOCCOCCOCCOCCC(=O)NCCS(=O)(=O)c4ccc(C(=O)N5CCOc6ccc(-c7ccc(N)nc7)cc6C5)c(C)c4F)nn3)[C@H](OC)C2)CC(=O)[C@H](C)/C=C(\C)[C@@H](O)[C@@H](OC)C(=O)[C@H](C)C[C@H](C)/C=C/C=C/C=C/1C [Example 96] | < 1 nM | < 3.16 nM | 3.16 to 31.6 nM | – | – |
| COC(=O)N[C@H]1C[C@@H]2CC[C@@H](C)[C@@](O)(O2)C(=O)C(=O)N2CCCC[C@H]2C(=O)O[C@H]([C@H](C)C[C@@H]2CC[C@@H](OCCCCc3cn(CCOCCOCCOCCOCCOCCOCCOCCOCCC(=O)NCCCCn4nc(-c5cc6cc(O)ccc6[nH]5)c5c(N)ncnc54)nn3)[C@H](OC)C2)CC(=O)[C@H](C)/C=C(\C)[C@@H](O)[C@@H](OC)C(=O)[C@H](C)C[C@H](C)/C=C/C=C/C=C/1C [Example 71] | 1 to 10 nM | 3.16 to 31.6 nM | > 1000 nM | – | – |
| CO[C@H]1C[C@@H]2CC[C@@H](C)[C@@](O)(O2)C(=O)C(=O)N2CCCC[C@H]2C(=O)O[C@H]([C@H](C)C[C@@H]2CC[C@H](n3cc(COC(=O)NCCOCCOCCOCCC(=O)NCCOCCOCCOCCC(=O)NCCCCn4nc(-c5ccc6oc(N)nc6c5)c5c(N)ncnc54)nn3)[C@H](OC)C2)CC(=O)[C@H](C)/C=C(\C)[C@@H](O)[C@@H](OC)C(=O)[C@H](C)C[C@H](C)/C=C/C=C/C=C/1C [Example 122] | 1 to 10 nM | 3.16 to 31.6 nM | 3.16 to 31.6 nM | – | – |
| COc1cccc2cc(-c3nc([C@H]4CC[C@H](C(=O)NCCOCCOCCOCCNC(=O)CCOCCOCCOCCOCCn5cc(CCCCO[C@@H]6CC[C@@H](C[C@@H](C)[C@@H]7C[C@@H](OC)[C@H](C)/C=C(\C)[C@@H](O)[C@@H](OC)C(=O)[C@H](C)C[C@H](C)/C=C/C=C/C=C(\C)[C@@H](OC)C[C@@H]8CC[C@@H](C)[C@@](O)(O8)C(=O)C(=O)N8CCCC[C@H]8C(=O)O7)C[C@H]6OC)nn5)CC4)n4ncnc(N)c34)[nH]c12 [Example 190] | < 1 nM | 3.16 to 31.6 nM | 31.6 to 1000 nM | – | – |
| CO[C@H]1C[C@@H]2CC[C@@H](C)[C@@](O)(O2)C(=O)C(=O)N2CCCC[C@H]2C(=O)O[C@H]([C@H](C)C[C@@H]2CC[C@@H](OCCCCc3cn(CCOCCOCCOCCNC(=O)CCCC(=O)NCCCCn4nc(-c5ccc6oc(N)nc6c5)c5c(N)ncnc54)nn3)[C@H](OC)C2)CC(=O)[C@H](C)/C=C(\C)[C@@H](O)[C@@H](OC)C(=O)[C@H](C)C[C@H](C)/C=C/C=C/C=C/1C [Example 100] | < 1 nM | 31.6 to 1000 nM | 3.16 to 31.6 nM | – | – |
| CO[C@H]1C[C@@H]2CC[C@@H](C)[C@@](O)(O2)C(=O)C(=O)N2CCCC[C@H]2C(=O)O[C@H]([C@H](C)C[C@@H]2CC[C@H](n3cc(COC(=O)NCCOCCOCCOCCC(=O)NCCOCCOCCOCCC(=O)NCCCCn4nc(-c5cc6cc(O)ccc6[nH]5)c5c(N)ncnc54)nn3)[C@H](OC)C2)CC(=O)[C@H](C)/C=C(\C)[C@@H](O)[C@@H](OC)C(=O)[C@H](C)C[C@H](C)/C=C/C=C/C=C/1C [Example 123] | 1 to 10 nM | 3.16 to 31.6 nM | 31.6 to 1000 nM | – | – |
| COc1ccc(-c2ccc3ncc4c(c3c2)n(-c2ccc(N3CCN(c5ncc(CNC(=O)CCOCCOCCOCCOCCOCCOCCn6cc(CCCCO[C@@H]7CC[C@@H](C[C@@H](C)[C@@H]8CC(=O)[C@H](C)/C=C(\C)[C@@H](O)[C@@H](OC)C(=O)[C@H](C)C[C@H](C)/C=C/C=C/C=C(\C)[C@@H](OC)C[C@@H]9CC[C@@H](C)[C@@](O)(O9)C(=O)C(=O)N9CCCC[C@H]9C(=O)O8)C[C@H]7OC)nn6)cn5)CC3)c(C(F)(F)F)c2)c(=O)n4C)cn1 [Example 66] | < 1 nM | < 3.16 nM | < 3.16 nM | – | – |
| CO[C@H]1C[C@@H]2CC[C@@H](C)[C@@](O)(O2)C(=O)C(=O)N2CCCC[C@H]2C(=O)O[C@H]([C@H](C)C[C@@H]2CC[C@@H](OCc3cccc(-c4cnc(N5CCN(Cc6cn(CCOCCOCCOCCOCCC(=O)NCCCCn7nc(-c8ccc9oc(N)nc9c8)c8c(N)ncnc87)nn6)CC5)nc4)c3)[C@H](OC)C2)CC(=O)[C@H](C)/C=C(\C)[C@@H](O)[C@@H](OC)C(=O)[C@H](C)C[C@H](C)/C=C/C=C/C=C/1C [Example 21] | < 1 nM | < 3.16 nM | 3.16 to 31.6 nM | – | – |
